Test results published in patent publication US20220016101A1 (ACADIA Pharmaceuticals Inc., priority 2018, published 2022).

System: patients with MDD and an inadequate response to an SSRI or SNRI
Experiment: Massachusetts General Hospital Sexual Functioning Index (MGH-SFI), Study ACP-103-042
Format: in vivo, human
Excerpt: “Massachusetts General Hospital Sexual Functioning Index (MGH-SFI)” is described, for instance, in Labbate and Lare, 2001, Psychother Psychosom. 70(4):221-225. This is a patient facing questionnaire that quantifies sexual dysfunction into 5 functional domains (“interest in sex,” “sexual arousal,” “ability to achieve orgasm,” “ability to maintain erection” (males only), and “sexual satisfaction”). Patients rate each item using a 6-point scale ranging from 1 (good function) to 6 (poor function). High scores indicate poor sexual functioning. […] The determination of the subject's status and eligibility for randomization in Stage 2 was made in a double-blind manner. […] Sexual functioning was assessed using the Massachusetts General Hospital Sexual Functioning Index or MGH-SFI (Labbate and Lare, 2001, Psychother Psychosom. 70(4):221-225). This is a patient facing questionnaire that quantifies sexual dysfunction into 5 functional domains (“interest in sex,” “sexual arousal,” “ability to achieve orgasm,” “ability to maintain erection” [malesonly], and “sexual satisfaction”). Patients rate each item using a 6-point scale ranging from 1 (good function) to 6 (poor function). The time frame for this scale is the past month. This scale was administered at baseline and Week 5 in both stages of the study. High scores indicate poor sexual functioning. In ACP-103-042 the mean scores for MGH-SFI at Baseline was calculated over all 5 domains for males and the 4 domains for females. For MGH-SFI (follow-up version) at Study Weeks 5 and 10, the mean was calculated in the same way as MGH-SFI at Baseline. […] Tables 10-27 summarize the detailed data of MGH-SFI individual items of the overall study group (Tables 10-15), the subgroup of age of <=50 (Tables 16-21) and the subgroup of age of >50 (Table 21-26). In Tables 9-26, ANCOVA=analysis of covariance; OC=observed cases; LSM=least squares mean; CI=confidence interval; SD=standard deviation; SE=standard error. Stage 1: Baseline=Study Week 0, Week 5=Study Week 5; Stage 2: Baseline=Study Week 5, Week 5=Study Weeks 10. LSM from the stage-specific ANCOVA analysis with the change from baseline as the outcome, treatment group as a factor, and the corresponding Baseline value as a covariate. 2-sided p-value for treatment difference from the stage-specific ANCOVA analysis. An treatment effect size (Cohen's d) is calculated using the formula: Effect Size=Least Square mean difference between PIM and PBO/SD. The corresponding 95% confidence interval for an effect size is calculated based on the theoretical probability distribution of the effect size. […] Tables 10-15 and 28-38 summarize the detailed data of MGH-SFI individual items of the overall study group (Tables 10-15), the female subgroup (Tables 33-37) and the male subgroup (Table 38-43). An treatment effect size (Cohen's d) is calculated using the formula: Effect Size=Least Square mean difference between PIM and PBO/SD. The corresponding 95% confidence interval for an effect size is calculated based on the theoretical probability distribution of the effect size. In Tables 10-15 and 28-38, ANCOVA=analysis of covariance; OC=observed cases; LSM=least squares mean; CI=confidence interval; SD=standard deviation; SE=standard error. Stage 1: Baseline=Study Week 0, Week 5=Study Week 5; Stage 2: Baseline=Study Week 5, Week 5=Study Weeks 10. LSM from the stage-specific ANCOVA analysis with the change from baseline as the outcome, treatment group as a factor, and the corresponding Baseline value as a covariate. 2-sided p-value for treatment difference from the stage-specific ANCOVA analysis. An treatment effect size (Cohen's d) is calculated using the formula: Effect Size=Least Square mean difference between PIM and PBO/SD. The corresponding 95% confidence interval for an effect size is calculated based on the theoretical probability distribution of the effect size.

[1] = female subgroup, Stage 2, positive = pimavanserin better than placebo
[2] = male subgroup, Stage 1 (Study Week 0 to 5), PIM 34 mg
[3] = male subgroup, Stage 1 (Study Week 5), PIM 34 mg
[4] = male subgroup, Stage 1, PIM 34 mg
[5] = male subgroup, Stage 1, PIM 34 mg vs placebo, change from baseline to Week 5
[6] = male subgroup, Stage 1, PIM 34 mg, Week 5
[7] = male subgroup, Stage 2 (Study Week 5 to 10), PIM 34 mg
[8] = male subgroup, Stage 2 (Study Week 10), PIM 34 mg

## CC(C)COc1ccc(CNC(=O)N(Cc2ccc(F)cc2)C2CCN(C)CC2)cc1 [pimavanserin, N-(4-Fluorophenylmethyl)-N-(1-methylpiperidin-4-yl)-N′-(4-(2-methylpropyloxy)phenylmethyl)carbamide]
[1]
  MGH-SFI 05: Overall Sexual Satisfaction, Effect Size (Cohen's d): 0.227
  MGH-SFI 06: Overall Improvement Since Last Medication Change, Effect Size (Cohen's d): 0.167
[2]
  MGH-SFI 01: Interest in Sex, Change from Baseline to Week 5 Mean (SE): −0.6 (1.04)
  MGH-SFI 01: Interest in Sex, Change from Baseline to Week 5 Median: −1.0
[3]
  MGH-SFI 01: Interest in Sex, Week 5 Mean (SE): 4.1 (0.63)
  MGH-SFI 01: Interest in Sex, Week 5 Median: 5.0
[4]
  MGH-SFI Item 02: Ability to Get Sexually Aroused or Excited, Change from Baseline to Week 5, Mean (SE): −0.7 (0.61)
  MGH-SFI Item 02: Ability to Get Sexually Aroused or Excited, Change from Baseline to Week 5, Median: 0.0
  MGH-SFI Item 03: Ability to Achieve Orgasm, Change from Baseline to Week 5, Mean (SE): −0.4 (0.61)
  MGH-SFI Item 03: Ability to Achieve Orgasm, Change from Baseline to Week 5, Median: 0.0
  MGH-SFI Item 04: (Men) Ability to Get and Maintain an Erection, Change from Baseline to Week 5, Mean (SE): −0.3 (0.78)
  MGH-SFI Item 04: (Men) Ability to Get and Maintain an Erection, Change from Baseline to Week 5, Median: 0.0
  MGH-SFI Item 05: Overall Sexual Satisfaction, Change from Baseline to Week 5, Mean (SE): −0.6 (0.81)
  MGH-SFI Item 05: Overall Sexual Satisfaction, Change from Baseline to Week 5, Median: 0.0
Male subgroup, Stage 1, PIM 34 mg vs placebo, Week 5
  MGH-SFI Item 06: Overall Improvement Since Last Medication Change, Effect Size (Cohen's d): 0.257
[5]
  MGH-SFI Item 02: Ability to Get Sexually Aroused or Excited, Effect Size (Cohen's d): 0.358
  MGH-SFI Item 03: Ability to Achieve Orgasm, Effect Size (Cohen's d): 0.053
  MGH-SFI Item 04: (Men) Ability to Get and Maintain an Erection, Effect Size (Cohen's d): 0.105
  MGH-SFI Item 05: Overall Sexual Satisfaction, Effect Size (Cohen's d): 0.047
[6]
  MGH-SFI Item 02: Ability to Get Sexually Aroused or Excited, Week 5, Mean (SE): 3.7 (0.68)
  MGH-SFI Item 02: Ability to Get Sexually Aroused or Excited, Week 5, Median: 4.0
  MGH-SFI Item 03: Ability to Achieve Orgasm, Week 5, Mean (SE): 4.1 (0.74)
  MGH-SFI Item 03: Ability to Achieve Orgasm, Week 5, Median: 5.0
  MGH-SFI Item 04: (Men) Ability to Get and Maintain an Erection, Week 5, Mean (SE): 3.9 (0.70)
  MGH-SFI Item 04: (Men) Ability to Get and Maintain an Erection, Week 5, Median: 3.0
  MGH-SFI Item 05: Overall Sexual Satisfaction, Week 5, Mean (SE): 4.6 (0.69)
  MGH-SFI Item 05: Overall Sexual Satisfaction, Week 5, Median: 5.0
  MGH-SFI Item 06: Overall Improvement Since Last Medication Change, Week 5, Mean (SE): 3.3 (0.64)
  MGH-SFI Item 06: Overall Improvement Since Last Medication Change, Week 5, Median: 3.0
Male subgroup, Stage 1, positive = pimavanserin better than placebo
  MGH-SFI 01: Interest in Sex, Effect Size (Cohen's d): 0.104
[7]
  MGH-SFI 01: Interest in Sex, Change from Baseline to Week 5 Mean (SE): −0.8 (0.32)
  MGH-SFI 01: Interest in Sex, Change from Baseline to Week 5 Median: −1.0
[8]
  MGH-SFI 01: Interest in Sex, Week 5 Mean (SE): 3.6 (0.47)
  MGH-SFI 01: Interest in Sex, Week 5 Median: 4.0
Male subgroup, Stage 2, PIM 34 mg
  MGH-SFI Item 02: Ability to Get Sexually Aroused or Excited, Change from Baseline to Week 5, Mean (SE): −0.6 (0.29)
